In one assay the test system is TNFα. Kind of assay: Cot Monocyte TNFα Cell Based Assay. To be noted: Homo sapiens, Monocyte, read-out: EC50 TNF, LPS-stimulated human monocytes, TNFα.
For the compound `CC(C)(C)N1CCC(n2cc([C@@H](Nc3cc(Cl)c4ncc(C#N)c(Nc5ccc(F)c(Cl)c5)c4c3)c3cccc4ncsc34)nn2)CC1` [Example 52, (S)-6-((benzo[d]thiazol-7-yl(1-(1-(tert-butyl)piperidin-4-yl)-1H-1,2,3-triazol-4-yl)methyl)amino)-8-chloro-4-((3-chloro-4-fluorophenyl)amino)quinoline-3-carbonitrile], the EC50 (usually the concentration giving half of the maximal effect) turned out to be 88 nM. The same measure, in the same setting: the figure for `CC(C)(C)N1CCC(n2cc([C@@H](Nc3cc(Cl)c4ncc(C#N)c(Nc5ccc(F)c(Cl)c5)c4c3)c3cccc4c3CCN4)nn2)CC1` [Example 60, (S)-6-(((1-(1-(tert-butyl)piperidin-4-yl)-1H-1,2,3-triazol-4-yl)(indolin-4-yl)methyl)amino)-8-chloro-4-((3-chloro-4-fluorophenyl)amino)quinoline-3-carbonitrile] is 131 nM; for `CCN1CCC(n2cc([C@@H](Nc3cc(Cl)c4ncc(C#N)c(Nc5ccc(F)c(Cl)c5)c4c3)c3ccc4cccnc4c3)nn2)CC1` [Example 65, (S)-8-chloro-4-((3-chloro-4-fluorophenyl)amino)-6-(((1-(1-ethylpiperidin-4-yl)-1H-1,2,3-triazol-4-yl)(quinolin-7-yl)methyl)amino)quinoline-3-carbonitrile] it is 538 nM. The same measure, in the same setting: under `CC(C)(C)CNc1c(C#N)cnc2c(C#N)cc(N[C@H](c3cn(C4CC4)nn3)c3cccc4c3CNC4=O)cc12` [Example 76, (S)-6-(((1-cyclopropyl-1H-1,2,3-triazol-4-yl)(1-oxoisoindolin-4-yl)methyl)amino)-4-(neopentylamino)quinoline-3,8-dicarbonitrile] stands 981 nM. As for `[2H]C(Nc1cc(Cl)c2ncc(C#N)c(N[C@H](CC)c3ccccc3)c2c1)(c1cn(C2CC2)nn1)c1cc(F)cnc1C` (stereo partly drawn) [Example 113, 8-chloro-6-(((1-cyclopropyl-1H-1,2,3-triazol-4-yl)(5-fluoro-2-methylpyridin-3-yl)methyl-d)amino)-4-(((R)-1-phenylpropyl)amino)quinoline-3-carbonitrile], the EC50 was found to be 253 nM. Same read-out and setting: under `N#Cc1cnc2c(Cl)cc(N[C@H](c3cn(C4CC4)nn3)c3cnccc3Cl)cc2c1Nc1cnc(F)c(F)c1` [Example 133, (S)-8-chloro-6-(((4-chloropyridin-3-yl)(1-cyclopropyl-1H-1,2,3-triazol-4-yl)methyl)amino)-4-((5,6-difluoropyridin-3-yl)amino)quinoline-3-carbonitrile] stands 978 nM; under `[2H][C@](Nc1cc(Cl)c2ncc(C#N)c(NCC(C)(C)C)c2c1)(c1ccc(F)nc1)c1c[nH]nn1` [Example 135, (S)-8-chloro-6-(((6-fluoropyridin-3-yl)(1H-1,2,3-triazol-4-yl)methyl-d)amino)-4-(neopentylamino)quinoline-3-carbonitrile], 660 nM. Same read-out and setting: under `Cc1scnc1[C@H](Nc1cc(Cl)c2ncc(C#N)c(Nc3ccc(F)c(Cl)c3)c2c1)c1cn(C2CCN(C(C)(C)C)CC2)nn1` [Example 137, (S)-6-(((1-(1-(tert-butyl)piperidin-4-yl)-1H-1,2,3-triazol-4-yl)(5-methylthiazol-4-yl)methyl)amino)-8-chloro-4-((3-chloro-4-fluorophenyl)amino)quinoline-3-carbonitrile] stands 235 nM. The same measure, in the same setting: the figure for `N#Cc1cnc2c(Cl)cc(N[C@@H](C3=CCOCC3)c3c[nH]nn3)cc2c1Nc1cnc(F)c(F)c1` [Example 156, (S)-8-chloro-4-((5,6-difluoropyridin-3-yl)amino)-6-(((3,6-dihydro-2H-pyran-4-yl)(1H-1,2,3-triazol-4-yl)methyl)amino)quinoline-3-carbonitrile] is 1190 nM; for `N#Cc1cnc2c(Cl)cc(N[C@H](c3c[nH]nn3)c3cccnc3Cl)cc2c1Nc1cnc(F)c(F)c1` [Example 161, (S)-8-chloro-6-(((2-chloropyridin-3-yl)(1H-1,2,3-triazol-4-yl)methyl)amino)-4-((5,6-difluoropyridin-3-yl)amino)quinoline-3-carbonitrile] it is 1670 nM. Take `N#Cc1cnc2c(Cl)cc(N[C@@H](c3cnc(F)c(F)c3)c3c[nH]nn3)cc2c1Nc1cnc(F)c(F)c1` [Example 163, (S)-8-chloro-6-(((5,6-difluoropyridin-3-yl)(1H-1,2,3-triazol-4-yl)methyl)amino)-4-((5,6-difluoropyridin-3-yl)amino)quinoline-3-carbonitrile]: the EC50 worked out at 4140 nM.

`Cc1nc(Cl)ccc1[C@H](Nc1cc(Cl)c2ncc(C#N)c(Nc3cnc(F)c(F)c3)c2c1)c1c[nH]nn1` [Example 169, (S)-8-chloro-6-(((6-chloro-2-methylpyridin-3-yl)(1H-1,2,3-triazol-4-yl)methyl)amino)-4-((5,6-difluoropyridin-3-yl)amino)quinoline-3-carbonitrile]: the EC50 was found to be 1220 nM. Same read-out and setting: the figure for `Cc1ncsc1[C@H](Nc1cc(Cl)c2ncc(C#N)c(Nc3cnc(F)c(F)c3)c2c1)c1c[nH]nn1` [Example 170, (R)-8-chloro-4-((5,6-difluoropyridin-3-yl)amino)-6-(((4-methylthiazol-5-yl)(1H-1,2,3-triazol-4-yl)methyl)amino)quinoline-3-carbonitrile] is 1260 nM; for `CC[C@@H](Nc1c(C#N)cnc2c(Cl)cc(N[C@@H](c3cccnc3)c3cn([C@@H](C)CF)nn3)cc12)c1ccccc1` [Example 181, 8-chloro-6-(((S)-(1-((S)-1-fluoropropan-2-yl)-1H-1,2,3-triazol-4-yl)(pyridin-3-yl)methyl)amino)-4-(((R)-1-phenylpropyl)amino)quinoline-3-carbonitrile] it is 92 nM. On the same count and under the same terms, the figure for `N#Cc1cnc2c(Cl)cc(N[C@@H](c3cccnc3)c3cn(C4COC4)nn3)cc2c1N[C@@H](CCO)c1ccccc1` [Example 182, 8-chloro-4-(((S)-3-hydroxy-1-phenylpropyl)amino)-6-(((S)-(1-(oxetan-3-yl)-1H-1,2,3-triazol-4-yl)(pyridin-3-yl)methyl)amino)quinoline-3-carbonitrile] is 1040 nM; for `CC[C@@H](Nc1c(C#N)cnc2c(Cl)cc(N[C@@H](c3cccnc3)c3cn(C4COC4)nn3)cc12)c1ccccc1` [Example 194, 8-chloro-6-(((S)-(1-(oxetan-3-yl)-1H-1,2,3-triazol-4-yl)(pyridin-3-yl)methyl)amino)-4-(((R)-1-phenylpropyl)amino)quinoline-3-carbonitrile] it is 111 nM; for `N#Cc1cnc2c(Cl)cc(N[C@@H](c3cccnc3)c3cn(C4CC4)nn3)cc2c1Nc1cnc(F)c(F)c1` [Example 206, (S)-8-chloro-6-(((1-cyclopropyl-1H-1,2,3-triazol-4-yl)(pyridin-3-yl)methyl)amino)-4-((5,6-difluoropyridin-3-yl)amino)quinoline-3-carbonitrile] it is 211 nM. In the case of `N#Cc1cnc2c(Cl)cc(N[C@@H](c3cccnc3)c3cn(CC(F)(F)F)nn3)cc2c1Nc1cnc(F)c(F)c1` [Example 209, (S)-8-chloro-4-((5,6-difluoropyridin-3-yl)amino)-6-((pyridin-3-yl(1-(2,2,2-trifluoroethyl)-1H-1,2,3-triazol-4-yl)methyl)amino)quinoline-3-carbonitrile], the EC50 is 941 nM. The same measure, in the same setting: the figure for `CC[C@@H](Nc1c(C#N)cnc2c(Cl)cc(N[C@@H](c3cccnc3)c3cn(C4CCCC4)nn3)cc12)c1ccccc1` [Example 213, 8-chloro-6-(((S)-(1-cyclopentyl-1H-1,2,3-triazol-4-yl)(pyridin-3-yl)methyl)amino)-4-(((R)-1-phenylpropyl)amino)quinoline-3-carbonitrile] is 103 nM; for `Cc1ncsc1[C@H](Nc1cc(Cl)c2ncc(C#N)c(Nc3ccc(Cl)c(Cl)c3F)c2c1)c1cn(C2COC2)nn1` [Example 217, (R)-8-chloro-4-((3,4-dichloro-2-fluorophenyl)amino)-6-(((4-methylthiazol-5-yl)(1-(oxetan-3-yl)-1H-1,2,3-triazol-4-yl)methyl)amino)quinoline-3-carbonitrile] it is 264 nM; for `Cc1ncccc1[C@H](Nc1cc(Cl)c2ncc(C#N)c(Nc3cccc(Cl)c3)c2c1)c1c[nH]nn1` [Example 224, (S)-8-chloro-4-((3-chlorophenyl)amino)-6-(((2-methylpyridin-3-yl)(1H-1,2,3-triazol-4-yl)methyl)amino)-quinoline-3-carbonitrile] it is 2630 nM. On the same count and under the same terms, the figure for `Cc1ncccc1[C@H](Nc1cc(Cl)c2ncc(C#N)c(N[C@H](C)c3ccccc3)c2c1)c1c[nH]nn1` [Example 229, 8-chloro-6-(((S)-(2-methylpyridin-3-yl)(1H-1,2,3-triazol-4-yl)methyl)amino)-4-(((R)-1-phenylethyl)amino)quinoline-3-carbonitrile] is 1470 nM.

The same assay, now with this note: read-out: EC50 TNF; LPS-stimulated human monocytes, TNFα.
Consider `CC(C)(C)N1CCC(n2cc([C@@H](Nc3cc(Cl)c4ncc(C#N)c(Nc5ccc(F)c(Cl)c5)c4c3)c3ccc4ncsc4c3)nn2)CC1` [Example 63, (S)-6-((benzo[d]thiazol-6-yl(1-(1-(tert-butyl)pipcridin-4-yl)-1H-1,2,3-triazol-4-yl)methyl)amino)-8-chloro-4-((3-chloro-4-fluorophenyl)amino)quinoline-3-carbonitrile], for which the EC50 turned out to be 257 nM.

Turning to `CC(C)(C)N1CCC(n2cc([C@@H](Nc3cc(Cl)c4ncc(C#N)c(Nc5cnc(F)c(F)c5)c4c3)c3cccnc3)nn2)CC1` [Example 208], the EC50 turned out to be 465 nM.

The same assay, now with this note: read-out: EC50 TNF; LPS-stimulated human monocytes, TNFα TR-FRET.
Regarding “6-(((6-fluoro-2-methylpyridin-3-yl)(1-((1- (trifluoromethyl)cyclopropyl)-1H-1,2,3- triazol-4-yl)methyl)amino)-8-(3-hydroxy- 3-methylbutyl-1-yl)-4- (neopentylamino)quinoline-3-carbonitrile [Example 982]”, the EC50 was determined as 1000 nM.

The assay is the same for the next values; noted with them: second value of the cell IC50/EC50; LPS-stimulated human monocytes, TNFα by TR-FRET.
For the compound `CCN1CCC(n2cc(CNc3cc(Cl)c4ncc(C#N)c(Nc5ccc(F)c(Cl)c5)c4c3)nn2)CC1` [Comparative Example 1, reference compound], the “IC50/EC50 [nM]: EC50 (TNFα)” value is recorded as 310 nM.

Regarding `Cn1cc(CNc2cc(Cl)c3ncc(C#N)c(Nc4ccc(F)c(Cl)c4)c3c2)nn1` [Comparative Example 3, reference compound], the “IC50/EC50 [nM]: EC50 (TNFα)” value is greater than 10000 nM.

These data come from patent US11066414B2, “Cot modulators and methods of use thereof” (Gilead Sciences, Inc., priority 2015, dated 2021).
